Laboratory results: ChEMBL document CHEMBL1201862, “PubChem BioAssay data set” (2004)
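Cultured in 96-well plates, cells were exposed to test compound for 48 hours across five concentrations. GI50 is the concentration that inhibits growth by half.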 Active and inactive are the calls of the source. Rule as the data show it: active = GI50 up to about 1.1 µM and inactive = higher.

What was measured:
Test in all cases: NCI anticancer screen, dose series, 48 h
[1] = test system: SK-MEL-2
[2] = test system: EKVX
[3] = test system: CAKI-1
[4] = test system: UACC-62
[5] = test system: HOP-62
[6] = test system: SF-268
[7] = test system: MDA-N
[8] = test system: HCT-116
[9] = test system: SK-MEL-5
[10] = test system: COLO 205
[11] = test system: A549
[12] = test system: 786-0
[13] = test system: NCI-H226
[14] = test system: OVCAR-4
[15] = test system: HCT-15
[16] = test system: SK-MEL-28
[17] = test system: UO-31
[18] = test system: DU-145
[19] = test system: OVCAR-8
[20] = test system: Malme-3M

Q: What does the source list for `CN(C)Cc1cc(/N=N/c2ccc(Cl)cc2)ccc1O`?
A: GI50 [1]: 21.3 µM (inactive); GI50 [2]: 18.3 µM (inactive); GI50 [3]: 15.4 µM (inactive); GI50 [4]: 16 µM (inactive); GI50 [5]: 10.1 µM (inactive); GI50 [6]: 14.8 µM (inactive); GI50 [7]: 19.5 µM (inactive); GI50 [8]: 16.7 µM (inactive); GI50 [9]: 14.4 µM (inactive); GI50 [10]: 3.81 µM (inactive); GI50 [11]: 16 µM (inactive); GI50 [12]: 12.8 µM (inactive); GI50 [13]: 14.6 µM (inactive); GI50 [14]: 16.5 µM (inactive); GI50 [15]: 15.1 µM; GI50 [16]: 16 µM (inactive); GI50 [17]: 11.7 µM (inactive); GI50 [18]: 25.1 µM (inactive); GI50 [19]: 16.9 µM (inactive); GI50 [20]: 14 µM (inactive)

Q: `[N-]=[N+]=Nc1c(Cc2ccccc2)c(Cl)nc2ccccc12` was tested. Which GI50 [1] did it give?
A: 16.6 µM (inactive)

Q: What about the GI50 [2] of the same compound?
A: 27.2 µM (inactive)

Q: And the GI50 [3]?
A: 21.4 µM (inactive)

Q: What about the GI50 [4] of the same compound?
A: 22.6 µM (inactive)

Q: What about the GI50 [5] of the same compound?
A: 22.4 µM (inactive)

Q: And the GI50 [6]?
A: 33.6 µM (inactive)

Q: And the GI50 [7]?
A: 21.9 µM (inactive)

Q: And the GI50 [8]?
A: 17.5 µM (inactive)

Q: What about the GI50 [9] of the same compound?
A: 15.4 µM (inactive)

Q: And the GI50 [10]?
A: 15.1 µM (inactive)

Q: What about the GI50 [11] of the same compound?
A: 36.3 µM (inactive)

Q: And the GI50 [12]?
A: 35.6 µM (inactive)

Q: And the GI50 [13]?
A: 16 µM (inactive)

Q: And the GI50 [14]?
A: 42 µM (inactive)

Q: And the GI50 [15]?
A: 35.2 µM

Q: And the GI50 [16]?
A: 45.5 µM (inactive)

Q: And the GI50 [17]?
A: 28.6 µM (inactive)

Q: And the GI50 [18]?
A: 42.8 µM (inactive)

Q: And the GI50 [19]?
A: 20.8 µM (inactive)

Q: What about the GI50 [20] of the same compound?
A: 21.1 µM (inactive)

Q: For `COC(=O)/C=C\C(C#N)(C#N)/N=C/c1ccccc1`, which GI50 [1] is on record?
A: 16.7 µM (inactive)

Q: And the GI50 [2]?
A: 12.8 µM (inactive)

Q: What about the GI50 [3] of the same compound?
A: 2.86 µM (inactive)

Q: What about the GI50 [4] of the same compound?
A: 14.5 µM (inactive)

Q: And the GI50 [5]?
A: 18.5 µM (inactive)

Q: And the GI50 [6]?
A: 4.95 µM (inactive)

Q: What about the GI50 [7] of the same compound?
A: 4.44 µM (inactive)

Q: What about the GI50 [8] of the same compound?
A: 1.77 µM (inactive)

Q: And the GI50 [9]?
A: 13.5 µM (inactive)

Q: And the GI50 [10]?
A: 1.62 µM (inactive)

Q: And the GI50 [11]?
A: 17.8 µM (inactive)

Q: And the GI50 [12]?
A: 1.63 µM (inactive)

Q: And the GI50 [13]?
A: 9.55 µM (inactive)

Q: What about the GI50 [14] of the same compound?
A: 4.22 µM (inactive)

Q: What about the GI50 [15] of the same compound?
A: 2.92 µM

Q: And the GI50 [16]?
A: 6 µM (inactive)

Q: What about the GI50 [17] of the same compound?
A: 2.42 µM (inactive)

Q: What about the GI50 [18] of the same compound?
A: 17.1 µM (inactive)

Q: What about the GI50 [19] of the same compound?
A: 1.91 µM (inactive)

Q: And the GI50 [20]?
A: 2.21 µM (inactive)
